System: P12-Ichikawa
Assay: cell viability relative to DMSO control; higher = less cytotoxic
Details: 48 h
Outline: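 Three leukemia lines were tested: NOMO1 and SEM at 500 cells/well and P12-Ichikawa at 1000 cells/well. Each was adapted for at least four passages in each medium and seeded in 5 μl in 1536-well plates, and library compounds in DMSO were pin-dosed from 47 μM to 0.79 nM in 11 threefold steps. After 48 h at 37°C, CellTiter-Glo One luminescence was read. Viability is a percentage relative to DMSO wells on each plate, with cell-free wells as background.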

[1] = HPLM + 10% dialyzed FBS, 0.000781 µM
[2] = HPLM + 10% dialyzed FBS, 0.00234 µM
[3] = HPLM + 10% dialyzed FBS, 0.00702 µM
[4] = HPLM + 10% dialyzed FBS, 0.0211 µM
[5] = HPLM + 10% dialyzed FBS, 0.0632 µM
[6] = HPLM + 10% dialyzed FBS, 0.19 µM
[7] = HPLM + 10% dialyzed FBS, 0.569 µM
[8] = HPLM + 10% dialyzed FBS, 1.71 µM
[9] = HPLM + 10% dialyzed FBS, 5.12 µM
[10] = HPLM + 10% dialyzed FBS, 15.4 µM
[11] = HPLM + 10% dialyzed FBS, 46.1 µM
[12] = RPMI 5 mM glucose + 10% FBS, 0.000781 µM
[13] = RPMI 5 mM glucose + 10% FBS, 0.00234 µM
[14] = RPMI 5 mM glucose + 10% FBS, 0.00702 µM
[15] = RPMI 5 mM glucose + 10% FBS, 0.0211 µM
[16] = RPMI 5 mM glucose + 10% FBS, 0.0632 µM
[17] = RPMI 5 mM glucose + 10% FBS, 0.19 µM
[18] = RPMI 5 mM glucose + 10% FBS, 0.569 µM
[19] = RPMI 5 mM glucose + 10% FBS, 1.71 µM
[20] = RPMI 5 mM glucose + 10% FBS, 5.12 µM
[21] = RPMI 5 mM glucose + 10% FBS, 15.4 µM
[22] = RPMI 5 mM glucose + 10% FBS, 46.1 µM
[23] = RPMI 5 mM glucose + 10% dialyzed FBS, 0.000781 µM
[24] = RPMI 5 mM glucose + 10% dialyzed FBS, 0.00234 µM
[25] = RPMI 5 mM glucose + 10% dialyzed FBS, 0.00702 µM
[26] = RPMI 5 mM glucose + 10% dialyzed FBS, 0.0211 µM
[27] = RPMI 5 mM glucose + 10% dialyzed FBS, 0.0632 µM
[28] = RPMI 5 mM glucose + 10% dialyzed FBS, 0.19 µM
[29] = RPMI 5 mM glucose + 10% dialyzed FBS, 0.569 µM
[30] = RPMI 5 mM glucose + 10% dialyzed FBS, 1.71 µM
[31] = RPMI 5 mM glucose + 10% dialyzed FBS, 5.12 µM
[32] = RPMI 5 mM glucose + 10% dialyzed FBS, 15.4 µM
[33] = RPMI 5 mM glucose + 10% dialyzed FBS, 46.1 µM

Row | SMILES | cell viability [1] | cell viability [2] | cell viability [3] | cell viability [4] | cell viability [5] | cell viability [6] | cell viability [7] | cell viability [8] | cell viability [9] | cell viability [10] | cell viability [11] | cell viability [12] | cell viability [13] | cell viability [14] | cell viability [15] | cell viability [16] | cell viability [17] | cell viability [18] | cell viability [19] | cell viability [20] | cell viability [21] | cell viability [22] | cell viability [23] | cell viability [24] | cell viability [25] | cell viability [26] | cell viability [27] | cell viability [28] | cell viability [29] | cell viability [30] | cell viability [31] | cell viability [32] | cell viability [33]
1 | CC(C)c1ccc2c(c1)c(SC(C)(C)C)c(CC(C)(C)C(=O)[O-])n2Cc1ccc(Cl)cc1 | 98.5% | 98.9% | 99.7% | 103% | 97% | 98.4% | 94.8% | 93.4% | 90.3% | 87.5% | 90.8% | 96.3% | 91.5% | 100% | 96.2% | 96% | 96.3% | 92.6% | 92.3% | 88.2% | 85.3% | 89.9% | 87% | 93.6% | 90.3% | 88.8% | 94.8% | 88.3% | 93.8% | 89.3% | 81.7% | 82.2% | 84.5%
2 | CN[C@@H](C)[C@H]1[C@H](O)C[C@@]2(C)[C@@H]3CC[C@H]4C(C)(C)[C@@H](NC)CC[C@@]45C[C@@]35CC[C@]12C | 92.3% | 97.3% | 84.8% | 98.4% | 96.5% | 100% | 98.8% | 102% | 103% | 97% | 96.3% | 95.4% | 89% | 81.6% | 94.4% | 103% | 98.8% | 89.3% | 105% | 81.9% | 105% | 91.9% | 85% | 91% | 83.8% | 90.1% | 93.2% | 98.8% | 89.3% | 92.6% | 81.7% | 93.8% | 79.4%
3 | Cc1c(C)n(Cc2ccc(-c3ccccc3C(=O)O)cc2)c2ccc(C(=O)N[C@@H](C)c3ccc([N+](=O)[O-])cc3)cc12 | 103% | 105% | 102% | 107% | 103% | 109% | 109% | 120% | 114% | 25.8% | 33.6% | 101% | 104% | 102% | 96.8% | 112% | 110% | 114% | 102% | 113% | 25.2% | 25.1% | 99.6% | 97.5% | 106% | 105% | 106% | 101% | 113% | 108% | 114% | 25.5% | 20%
4 | C[C@@H](Oc1cc(-c2cnn(C3CCNCC3)c2)cnc1N)c1c(Cl)ccc(F)c1Cl | 118% | 119% | 115% | 118% | 115% | 120% | 111% | 95.7% | 90.6% | 73.5% | 18.9% | 116% | 118% | 123% | 116% | 124% | 117% | 115% | 113% | 82.2% | 68.9% | 21.4% | – | – | – | – | – | – | – | – | – | – | –
5 | COc1cc(OC2CCN(C)CC2)ccc1Nc1ncc2c(n1)n(C1CCCC1)c(=O)n2C | 83.2% | 85.4% | 83% | 91.2% | 91.6% | 97.9% | 88.5% | 92.8% | 99.6% | 86.2% | 2.55% | 74.9% | 93.8% | 82.7% | 88.2% | 85.8% | 81.4% | 91.6% | 81.3% | 87.2% | 69.9% | 5.17% | 76.7% | 80.6% | 76.3% | 85.5% | 86.1% | 80.4% | 86.5% | 83% | 85.6% | 61.4% | 0.821%
6 | Clc1ccc(-c2nc3sccn3c2/C=N/OCc2ccc(Cl)c(Cl)c2)cc1 | 114% | 109% | 107% | 112% | 108% | 103% | 104% | 106% | 101% | 99.9% | 98% | 111% | 113% | 118% | 102% | 113% | 108% | 110% | 110% | 98.5% | 96.5% | 98.9% | 114% | 110% | 101% | 110% | 110% | 100% | 102% | 101% | 91.3% | 101% | 102%
7 | O=C1c2ccccc2-[n+]2ccc3c([nH]c4ccccc43)c21 | 101% | 108% | 112% | 105% | 105% | 106% | 101% | 105% | 95.4% | 2.96% | 3.56% | 98.1% | 106% | 105% | 114% | 104% | 107% | 107% | 112% | 101% | 2.99% | 2.29% | 102% | 115% | 111% | 108% | 107% | 111% | 100% | 113% | 107% | 3.39% | 2.85%
8 | C[C@](Cc1c[nH]c2ccccc12)(NC(=O)OC1C2CC3CC(C2)CC1C3)C(=O)NC[C@H](NC(=O)CCC(=O)O)c1ccccc1 (stereo partly specified) | 112% | 129% | 125% | 130% | 131% | 128% | 138% | 132% | 122% | 129% | 122% | – | – | – | – | – | – | – | – | – | – | – | – | – | – | – | – | – | – | – | – | – | –

— the supplement of paper PMC11451515
